In one assay the target is NGF (Homo sapiens, UniProt P01138). Conditions: two-state kinetic model, 25° C., NGF 11-185 nM. As to the method: Affinity measurements were performed using a Biacore T100 system (GE Heathcare). The CM5 sensor chip was used for all measurements. At first, the instrument was primed with HBS-EP+ (GE Heathcare) buffer. Then, 700RU of streptavidin was immobilized on all flow cells. A 1:1 mixture of 0.4 M EDC and 0.1 M NHS was used to activate the flow cells, and 0.008 mg/mL streptavidin solution reconstituted in Acetate 5.0 buffer (GE Healthcare) was injected. Blocking of the remaining activated groups was done with a 1 M solution of ethanolamine (pH 8.5). Flow cell 1 (or 3) was used as a reference to subtract nonspecific binding, drift, and the bulk refractive index, while flow cell 2 (or 4) was further immobilized with glycol-peptide samples of varying structures. Biotinylated glycopeptides (20 nM) were dissolved in HBS-EP+ buffer and were injected to flow cell 2 (or 4) at 30 μL/min until the baseline response increased by 104 or 127 RU. The instrument was then primed using running buffer (HBS-EP+). NGF was dissolved in HBS-EP+ buffer to produce a 185 nM stock solution, which was serially diluted to produce a concentration series down to 11 nM. […] Flow cells were regenerated by 2.5 M MgCl2 at 30 μL/min for 30 seconds after injection of each protein solutions.
Surface plasmon resonance (SPR) technology was further employed to facilitate quantitative, real-time kinetic analysis of glycopeptide-NGF interaction. Streptavidin was coated on a carboxydextran CM5 sensor chip, using EDC/NHS coupling chemistry, at a relatively low density (≈700 RU) to prevent nonspecific interactions with NGF. Biotinylated glycopeptides were then immobilized on streptavidin-coated surface at normalized levels by molecular weights,^[12] […] Kinetics were monitored at 25° C. by injecting various concentrations of NGF (11-185 nM) over the surface for 240 s at 50 μL·min^−1 and recording the dissociation for 800 s before the surface was regenerated with 2.5 M solution of MgCl2. […] Further kinetic analysis was conducted using a two-state binding model for comprehensive understanding of this binding event.

Assay [1] has as its target nerve growth factor (NGF) (Homo sapiens, UniProt P01138). The experiment in a line: ELISA of NGF binding to immobilized biotinylated glycopeptides. Conditions: glycopeptide immobilized on streptavidin plate, NGF 0-60 nM, result in words. For orientation: In an ELISA, binding on a coated surface is turned into a signal by an enzyme label.
Experimental: The new plate was rinsed three times with PBS containing 0.05% Tween 20 and one time with PBS before the experiment. 100 μL of biotinylated glycopeptide solutions (0.5 μM) were added to required wells in the Pierce Streptavidin Coated High Binding Capacity plates (#15501), and incubated overnight at room temperature. After immobilization of glycopeptides, the plates were rinsed three times with PBS containing 0.05% Tween 20 and one time with PBS. The surface was then blocked with 125 μL of 3% BSA in PBS for 1 hr, followed by rinsing three times with PBS containing 0.05% Tween 20 and one time with PBS. 100 μL of varying concentrations (0 nM, 10 nM, 20 nM, 30 nM, 40 nM, 50 nM and 60 nM) of NGF in PBS containing 1% BSA was added to the wells and incubated for 2 hrs at 37° C. […]
The wells were then incubated with anti-NGF labeled with HRP in PBS containing 1% BSA. Absorbance signal was then developed with 100 μL of TMB Substrate from Thermo Scientific Pierce (#0034021) for 20 to 30 min before quenching with 100 μL of 2M H2SO4. Absorbance at 450 nm was then measured.
To evaluate the ability of the glycopeptides to interact with protein receptors, the binding affinity of each agent with nerve growth factor (NGF), which is known to bind CS-E sulfation motif selectively,^[9] was examined by ELISA. […] The amount of glycopeptide-bound NGF was measured by HRP-conjugated polyclonal NGF antibody.
Another assay concerns PC12 cells. Conditions: NGF 4 ng/ml, glycopeptide 10 μM, 72 hr, compared to NGF-only control. Here is the method: Rat pheochromocytoma (PC12) cells were maintained in T75 tissue culture flask in complete RPMI 1640 growth medium containing 10% heat-inactivated horse serum (HI-HS), 5% fetal bovine serum (FBS) and 1% penicillin/streptomycin. Stock cultures from liquid nitrogen were grown at 37° C. with 5% CO2 in a humidified chamber for 72 hr before experiments.
13 mm glass coverslips were submerged in 65% nitric acid for at least three days. The coverslips were washed with distilled water, 70% ethanol and 100% ethanol 3× each for 30 minutes with gentle rocking. The coverslips were dried in the cell culture hood overnight with UV sterilization. For coating, 60 μl of laminin solution (25 μg/ml in sterile PBS) was added to each coverslip, followed by 2 hr incubation at 37° C. The coverslips were rinsed 3× with PBS and dried in the hood before use.
PC12 cells were seeded on laminin-coated coverslips at a density of 100 cells/mm^2 in RPMI 1640 differentiation medium containing 1% HI-HS. Cells were allowed to attach to the surface for 1 hr at 37° C. The coverslips were transferred to 24-well plates and the cells were incubated with fresh differentiation medium for 1 hr. Glycopeptides were incubated with NGF in differentiation medium for 1 hr at room temperature before adding to the cells together. At the end of culture period, the cells were fixed with 4% formaldehyde solution for 15 minutes at room temperature and rinsed 2× with PBS. All experiments were repeated three times and done in duplicate each time. For each treatment, 400-500 randomly selected single cells were counted. The percentage of neurite-bearing cells was determined by counting the number of cells with neurite length at least one cell body long.

Each structure is given as a SMILES string.

Sequence of NGF (P01138 122-241, species assumed): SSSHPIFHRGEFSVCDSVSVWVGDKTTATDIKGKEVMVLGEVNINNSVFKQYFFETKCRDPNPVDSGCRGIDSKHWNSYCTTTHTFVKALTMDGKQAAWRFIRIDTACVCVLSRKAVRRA
Sequence of nerve growth factor (NGF) (P01138 122-241, species assumed): as above

Take `COC(=O)[C@@H]1C[C@@H](n2cc(CO[C@@H]3O[C@H](COS(=O)(=O)O)[C@H](OS(=O)(=O)O)[C@H](O[C@@H]4O[C@H](C(=O)O)[C@@H](O)[C@H](O)[C@H]4O)[C@H]3NC(C)=O)nn2)CN1C(=O)[C@@H]1C[C@@H](n2cc(CO[C@@H]3O[C@H](COS(=O)(=O)O)[C@H](OS(=O)(=O)O)[C@H](O[C@@H]4O[C@H](C(=O)O)[C@@H](O)[C@H](O)[C@H]4O)[C@H]3NC(C)=O)nn2)CN1C(=O)[C@@H]1C[C@@H](n2cc(CO[C@@H]3O[C@H](COS(=O)(=O)O)[C@H](OS(=O)(=O)O)[C@H](O[C@@H]4O[C@H](C(=O)O)[C@@H](O)[C@H](O)[C@H]4O)[C@H]3NC(C)=O)nn2)CN1C(=O)[C@@H]1C[C@@H](n2cc(CO[C@@H]3O[C@H](COS(=O)(=O)O)[C@H](OS(=O)(=O)O)[C@H](O[C@@H]4O[C@H](C(=O)O)[C@@H](O)[C@H](O)[C@H]4O)[C@H]3NC(C)=O)nn2)CN1C(=O)[C@@H]1C[C@@H](n2cc(CO[C@@H]3O[C@H](COS(=O)(=O)O)[C@H](OS(=O)(=O)O)[C@H](O[C@@H]4O[C@H](C(=O)O)[C@@H](O)[C@H](O)[C@H]4O)[C@H]3NC(C)=O)nn2)CN1C(=O)[C@@H]1C[C@@H](n2cc(CO[C@@H]3O[C@H](COS(=O)(=O)O)[C@H](OS(=O)(=O)O)[C@H](O[C@@H]4O[C@H](C(=O)O)[C@@H](O)[C@H](O)[C@H]4O)[C@H]3NC(C)=O)nn2)CN1C(=O)[C@@H]1C[C@@H](n2cc(CO[C@@H]3O[C@H](COS(=O)(=O)O)[C@H](OS(=O)(=O)O)[C@H](O[C@@H]4O[C@H](C(=O)O)[C@@H](O)[C@H](O)[C@H]4O)[C@H]3NC(C)=O)nn2)CN1C(=O)[C@@H]1C[C@@H](n2cc(CO[C@@H]3O[C@H](COS(=O)(=O)O)[C@H](OS(=O)(=O)O)[C@H](O[C@@H]4O[C@H](C(=O)O)[C@@H](O)[C@H](O)[C@H]4O)[C@H]3NC(C)=O)nn2)CN1C(=O)[C@@H]1C[C@@H](n2cc(CO[C@@H]3O[C@H](COS(=O)(=O)O)[C@H](OS(=O)(=O)O)[C@H](O[C@@H]4O[C@H](C(=O)O)[C@@H](O)[C@H](O)[C@H]4O)[C@H]3NC(C)=O)nn2)CN1C(=O)[C@@H]1C[C@@H](n2cc(CO[C@@H]3O[C@H](COS(=O)(=O)O)[C@H](OS(=O)(=O)O)[C@H](O[C@@H]4O[C@H](C(=O)O)[C@@H](O)[C@H](O)[C@H]4O)[C@H]3NC(C)=O)nn2)CN1C(=O)[C@@H]1C[C@@H](n2cc(CO[C@@H]3O[C@H](COS(=O)(=O)O)[C@H](OS(=O)(=O)O)[C@H](O[C@@H]4O[C@H](C(=O)O)[C@@H](O)[C@H](O)[C@H]4O)[C@H]3NC(C)=O)nn2)CN1C(=O)[C@@H]1C[C@@H](n2cc(CO[C@@H]3O[C@H](COS(=O)(=O)O)[C@H](OS(=O)(=O)O)[C@H](O[C@@H]4O[C@H](C(=O)O)[C@@H](O)[C@H](O)[C@H]4O)[C@H]3NC(C)=O)nn2)CN1C(=O)CCOCCOCCOCCOCCOCCOCCOCCOCCOCCOCCOCCOCCNC(=O)CCCC[C@@H]1SC[C@@H]2NC(=O)N[C@@H]21` [Glycopeptide 1]: on NGF, the ka2 is recorded as 3.62 (±0.04) × 10^−3 M^−1s^−1, the kd1 is reported as 3.22 (±0.07) × 10^−2 s^−1 and the kd2 was 6.43 (±0.13) × 10^−4 s^−1. Besides, the ka1 on NGF (standard errors in parentheses) was 1.95 (±0.39) × 10^3 M^−1s^−1. The “binding to NGF (ELISA)” value in assay [1] was “moderate binding affinity”. The “effect on NGF-mediated neurite outgrowth” value with PC12 cells is “no effect”.

Values taken from US9879059B2, “Tailoring multivalent interactions of biopolymers with a polyproline scaffold” (Agency for Science, Technology and Research, priority 2013, dated 2018).
